# Laboratory results reported in PubChem BioAssay AID220 (DTP/NCI, 2004).
# “And” between values parts separate entries of the source, which are not always exact repeats. Identical values can stand only once. Records with an inconclusive call do not appear.
# Test system: CD8F1 mice, subcutaneous mammary adenocarcinoma, T/C%
# Assay: NCI In Vivo Anticancer Drug Screen. Data for tumor model Mammary Adenocarcinoma CD8F1 (subcutaneous) in CD8F1
# Details: higher = larger tumour
# How it was run: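 Antitumor activity is assessed in transplantable-tumor mice by comparing the treated group with a vehicle-treated control group. Survival or tumor size serves as the measure, reported as T divided by C.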
# [1] = endpoint: median tumor weight (est.), dose: 200.0 mg/kg/injection, schedule: Q07DX005 (ip), vehicle: saline
# [2] = endpoint: median tumor weight (est.), dose: 12.5 mg/kg/injection, schedule: Q07DX005 (ip), vehicle: Klucel (hydroxypropylcellulose) (HPC)
# [3] = endpoint: median tumor weight (est.), dose: 100.0 mg/kg/injection, schedule: Q07DX005 (ip), vehicle: Klucel (hydroxypropylcellulose) (HPC)
# [4] = endpoint: median tumor weight (est.), dose: 200.0 mg/kg/injection, schedule: Q07DX005 (ip), vehicle: Klucel (hydroxypropylcellulose) (HPC)
# [5] = endpoint: median tumor weight (est.), dose: 25.0 mg/kg/injection, schedule: Q07DX005 (ip), vehicle: Klucel (hydroxypropylcellulose) (HPC)
# [6] = endpoint: median tumor weight (est.), dose: 400.0 mg/kg/injection, schedule: Q07DX005 (ip), vehicle: Klucel (hydroxypropylcellulose) (HPC)
compound,measurement,setting,value
CC(C)NC(=O)N(CCCCBr)N=O,T/C,"endpoint: median tumor weight change, dose: 49.37 mg/kg/injection, schedule: Q01DX001 (ip), vehicle: Klucel (hydroxypropylcellulose) (HPC)",43 % of control
same,T/C,"endpoint: median tumor weight change, dose: 62.0 mg/kg/injection, schedule: Q01DX001 (ip), vehicle: Klucel (hydroxypropylcellulose) (HPC)",42 % of control
same,T/C,"endpoint: median tumor weight change, dose: 98.75 mg/kg/injection, schedule: Q01DX001 (ip), vehicle: Klucel (hydroxypropylcellulose) (HPC)",34 % of control
same,T/C,"endpoint: median tumor weight change, dose: 197.5 mg/kg/injection, schedule: Q01DX001 (ip), vehicle: Klucel (hydroxypropylcellulose) (HPC)",-13 % of control
same,T/C,"endpoint: median tumor weight change, dose: 395.0 mg/kg/injection, schedule: Q01DX001 (ip), vehicle: Klucel (hydroxypropylcellulose) (HPC)",-66 % of control
same,T/C,"endpoint: median tumor weight change, dose: 500.0 mg/kg/injection, schedule: Q01DX001 (ip), vehicle: Klucel (hydroxypropylcellulose) (HPC)",-41 % of control
Nc1ccn(C2OC(CO)C(O)C2O)c(=O)n1 (stereo not drawn),T/C,"endpoint: mean tumor weight, dose: 18.75 mg/kg/injection, schedule: Q01DX009 (ip), vehicle: saline",84 % of control
same,T/C,"endpoint: mean tumor weight, dose: 25.0 mg/kg/injection, schedule: Q07DX007 (ip), vehicle: saline",101 % of control
same,T/C,"endpoint: mean tumor weight, dose: 37.5 mg/kg/injection, schedule: Q01DX009 (ip), vehicle: saline",39 % of control
same,T/C,"endpoint: mean tumor weight, dose: 75.0 mg/kg/injection, schedule: Q07DX005 (ip), vehicle: saline",89 % of control
same,T/C,"endpoint: mean tumor weight, dose: 75.0 mg/kg/injection, schedule: Q07DX007 (ip), vehicle: saline",98 % of control
same,T/C,"endpoint: mean tumor weight, dose: 150.0 mg/kg/injection, schedule: Q07DX005 (ip), vehicle: saline",89 % of control
same,T/C,"endpoint: mean tumor weight, dose: 300.0 mg/kg/injection, schedule: Q07DX005 (ip), vehicle: saline",100 % of control
same,T/C,"endpoint: median tumor weight (est.), dose: 75.0 mg/kg/injection, schedule: Q04DX005 (ip), vehicle: saline",31 % of control and 55 % of control
same,T/C,"endpoint: median tumor weight (est.), dose: 130.0 mg/kg/injection, schedule: Q07DX005 (ip), vehicle: saline",79 % of control
same,T/C,"endpoint: median tumor weight (est.), dose: 150.0 mg/kg/injection, schedule: Q04DX005 (ip), vehicle: saline",50 % of control and 53 % of control
same,T/C,"endpoint: median tumor weight (est.), dose: 150.0 mg/kg/injection, schedule: Q07DX004 (ip), vehicle: saline",22 % of control and 41 % of control
same,T/C,[1],73 % of control
same,T/C,"endpoint: median tumor weight (est.), dose: 300.0 mg/kg/injection, schedule: Q07DX005 (ip), vehicle: saline",48 % of control
same,T/C,"endpoint: median tumor weight (est.), dose: 450.0 mg/kg/injection, schedule: Q07DX005 (ip), vehicle: saline",75 % of control
same,T/C,"endpoint: median tumor weight (est.), dose: 600.0 mg/kg/injection, schedule: Q07DX005 (ip), vehicle: saline with Tween-80",34 % of control and 45 % of control
same,T/C,"endpoint: median tumor weight (est.), dose: 790.0 mg/kg/injection, schedule: Q01DX001 (ip), vehicle: saline",74 % of control
same,T/C,"endpoint: median tumor weight (est.), dose: 1180.0 mg/kg/injection, schedule: Q01DX001 (ip), vehicle: saline",54 % of control
same,T/C,"endpoint: median tumor weight (est.), dose: 1200.0 mg/kg/injection, schedule: Q07DX005 (ip), vehicle: saline with Tween-80",6 % of control and 18 % of control
same,T/C,"endpoint: median tumor weight (est.), dose: 1750.0 mg/kg/injection, schedule: Q01DX001 (ip), vehicle: saline",54 % of control
same,T/C,"endpoint: median tumor weight (est.), dose: 2500.0 mg/kg/injection, schedule: Q01DX001 (ip), vehicle: saline",62 % of control
same,T/C,"endpoint: median tumor weight change, dose: 790.0 mg/kg/injection, schedule: Q01DX001 (ip), vehicle: water",48 % of control
same,T/C,"endpoint: median tumor weight change, dose: 1180.0 mg/kg/injection, schedule: Q01DX001 (ip), vehicle: water",77 % of control
same,T/C,"endpoint: median tumor weight change, dose: 1750.0 mg/kg/injection, schedule: Q01DX001 (ip), vehicle: water",57 % of control
same,T/C,"endpoint: median tumor weight change, dose: 2500.0 mg/kg/injection, schedule: Q01DX001 (ip), vehicle: water",33 % of control
C=C(OP(=O)(OC)OC)Sc1ccccc1C,T/C,"endpoint: median tumor weight change, dose: 0.38 mg/kg/injection, schedule: Q01DX001 (ip), vehicle: Klucel (hydroxypropylcellulose) (HPC)",80 % of control
same,T/C,"endpoint: median tumor weight change, dose: 0.75 mg/kg/injection, schedule: Q01DX001 (ip), vehicle: Klucel (hydroxypropylcellulose) (HPC)",96 % of control
same,T/C,"endpoint: median tumor weight change, dose: 1.5 mg/kg/injection, schedule: Q01DX001 (ip), vehicle: Klucel (hydroxypropylcellulose) (HPC)",88 % of control
CC(=O)O[C@@H]1[C@@H](O)C2=C3[C@]4(C)[C@@H]1C(C)(C)C(=O)C[C@@H]4[C@]3(O)[C@H](OC(C)=O)[C@@]1(C[C@@H]1C)C2=O,T/C,"endpoint: median tumor weight (est.), dose: 6.25 mg/kg/injection, schedule: Q07DX005 (ip), vehicle: distilled water + Tween-80",98 % of control
same,T/C,"endpoint: median tumor weight (est.), dose: 6.25 mg/kg/injection, schedule: Q07DX005 (ip), vehicle: saline with Tween-80",112 % of control
same,T/C,"endpoint: median tumor weight (est.), dose: 12.5 mg/kg/injection, schedule: Q07DX005 (ip), vehicle: distilled water + Tween-80",151 % of control
same,T/C,"endpoint: median tumor weight (est.), dose: 12.5 mg/kg/injection, schedule: Q07DX005 (ip), vehicle: saline with Tween-80",117 % of control
same,T/C,"endpoint: median tumor weight (est.), dose: 25.0 mg/kg/injection, schedule: Q07DX005 (ip), vehicle: distilled water + Tween-80",87 % of control
same,T/C,"endpoint: median tumor weight (est.), dose: 50.0 mg/kg/injection, schedule: Q07DX005 (ip), vehicle: distilled water + Tween-80",94 % of control
same,T/C,"endpoint: median tumor weight (est.), dose: 50.0 mg/kg/injection, schedule: Q07DX005 (ip), vehicle: saline with Tween-80",72 % of control
Cc1cc(NCCCCCCNc2cc(C)nc3cc(N(C)C)ccc23)c2ccc(N(C)C)cc2n1,T/C,"endpoint: median tumor weight change, dose: 31.0 mg/kg/injection, schedule: Q01DX001 (ip), vehicle: distilled water + Tween-80 + alcohol",42 % of control
same,T/C,"endpoint: median tumor weight change, dose: 62.0 mg/kg/injection, schedule: Q01DX001 (ip), vehicle: distilled water + Tween-80 + alcohol",103 % of control
same,T/C,"endpoint: median tumor weight change, dose: 125.0 mg/kg/injection, schedule: Q01DX001 (ip), vehicle: distilled water + Tween-80 + alcohol",36 % of control
Cc1cc(N(CCOS(C)(=O)=O)CCOS(C)(=O)=O)ccc1C=Nc1ccc(-c2nc(Cc3ccccc3)sc2C)cc1,T/C,[2],18 % of control
same,T/C,[3],4 % of control and 9 % of control
same,T/C,[4],10 % of control
CC(=O)[O][Pb]([O]C(C)=O)([c]1ccccc1)[c]1ccccc1,T/C,[2],124 % of control
same,T/C,[5],80 % of control
same,T/C,"endpoint: median tumor weight (est.), dose: 50.0 mg/kg/injection, schedule: Q07DX005 (ip), vehicle: Klucel (hydroxypropylcellulose) (HPC)",65 % of control
same,T/C,[3],86 % of control
same,T/C,[4],75 % of control
same,T/C,[6],29 % of control
COc1cc(C2c3cc4c(cc3C(O)C(CO)C2CO)OCO4)cc(OC)c1OC (stereo not drawn),T/C,"endpoint: median tumor weight change, dose: 125.0 mg/kg/injection, schedule: Q01DX001 (ip), vehicle: saline with Tween-80",85 % of control
same,T/C,"endpoint: median tumor weight change, dose: 250.0 mg/kg/injection, schedule: Q01DX001 (ip), vehicle: saline with Tween-80",102 % of control
same,T/C,"endpoint: median tumor weight change, dose: 500.0 mg/kg/injection, schedule: Q01DX001 (ip), vehicle: saline with Tween-80",77 % of control
same,T/C,"endpoint: median tumor weight change, dose: 1000.0 mg/kg/injection, schedule: Q01DX001 (ip), vehicle: saline with Tween-80",95 % of control
same,T/C,"endpoint: median tumor weight change, dose: 2000.0 mg/kg/injection, schedule: Q01DX001 (ip), vehicle: saline with Tween-80",50 % of control
Nc1nc(/C=C(/O)c2ccccc2)c2ncn(C3OC(CO)C(O)C3O)c2n1 (stereo not drawn),T/C,"endpoint: median tumor weight change, dose: 50.0 mg/kg/injection, schedule: Q01DX001 (ip), vehicle: distilled water + Tween-80",91 % of control
C1CN2CN3CCN(CN1C3)C2,T/C,"endpoint: mean tumor weight, dose: 12.5 mg/kg/injection, schedule: Q07DX006 (ip), vehicle: saline",85 % of control
same,T/C,"endpoint: mean tumor weight, dose: 25.0 mg/kg/injection, schedule: Q07DX006 (ip), vehicle: saline",104 % of control
same,T/C,"endpoint: mean tumor weight, dose: 50.0 mg/kg/injection, schedule: Q07DX006 (ip), vehicle: saline",79 % of control
same,T/C,"endpoint: mean tumor weight, dose: 100.0 mg/kg/injection, schedule: Q07DX006 (ip), vehicle: saline",26 % of control
same,T/C,"endpoint: median tumor weight (est.), dose: 6.25 mg/kg/injection, schedule: Q07DX005 (ip), vehicle: saline",75 % of control
same,T/C,"endpoint: median tumor weight (est.), dose: 12.5 mg/kg/injection, schedule: Q07DX005 (ip), vehicle: saline",107 % of control
same,T/C,"endpoint: median tumor weight (est.), dose: 25.0 mg/kg/injection, schedule: Q07DX005 (ip), vehicle: saline",93 % of control
same,T/C,"endpoint: median tumor weight (est.), dose: 50.0 mg/kg/injection, schedule: Q07DX005 (ip), vehicle: saline",82 % of control
same,T/C,"endpoint: median tumor weight (est.), dose: 100.0 mg/kg/injection, schedule: Q07DX005 (ip), vehicle: saline",107 % of control
same,T/C,[1],67 % of control
ClCCCCCCCCCCc1ccccc1,T/C,[2],87 % of control
same,T/C,[5],88 % of control
same,T/C,[3],71 % of control
same,T/C,[4],71 % of control
same,T/C,[6],72 % of control
CCC(/C=C/C1OC(=O)C=CC1C)=C\C(C)C/C=C/C(C)=C/C(C)C(=O)C(C)C(O)C(C)C/C(C)=C/C(=O)O (stereo not drawn),T/C,"endpoint: median tumor weight change, dose: 200.0 mg/kg/injection, schedule: Q01DX001 (ip), vehicle: saline + alcohol",56 % of control
same,T/C,"endpoint: median tumor weight change, dose: 400.0 mg/kg/injection, schedule: Q01DX001 (ip), vehicle: saline + alcohol",49 % of control
same,T/C,"endpoint: median tumor weight change, dose: 800.0 mg/kg/injection, schedule: Q01DX001 (ip), vehicle: saline + alcohol",56 % of control
same,T/C,"endpoint: median tumor weight change, dose: 1600.0 mg/kg/injection, schedule: Q01DX001 (ip), vehicle: saline + alcohol",75 % of control
same,T/C,"endpoint: median tumor weight change, dose: 3200.0 mg/kg/injection, schedule: Q01DX001 (ip), vehicle: saline + alcohol",61 % of control
